# Measured values from paper PMC6287599, “2,6-Bis(2-Benzimidazolyl)Pyridine (BBP) Is a Potent and Selective Inhibitor of Small Conductance Calcium-Activated Potassium (SK) Channels” (Frontiers in Pharmacology, 2018).
# Experiments:
# Assay type in all cases: cell-based
# hSK1 = hSK1 (Homo sapiens, UniProt Q92952); experiment: Automated patch clamp (QPatch 16), whole cell, stable HEK293 cell line expressing hSK1; settings: HEK stable line, 400 nM free intracellular calcium, mean ± SEM, n = 9
# Procedure: (§1) Three different stable HEK293 cell lines expressing hSK1, hSK2 or hSK3 (NeuroSearch A/S, Ballerup, Denmark) and a CHO stable cell line expressing hERG (University of Copenhagen, Copenhagen, Denmark) were used for automated patch clamp. These cells were cultivated and prepared as previously described (Skarsfeldt et al., [2016]).
# (§2) Automated patch clamp (QPatch 16, Sophion, Denmark) on SK-expressing HEK293 cell lines was conducted as previously described (Simó-Vicens et al., [2017b]). Briefly, SK currents were elicited by voltage-ramps starting at −80 mV and finishing at +80 mV from a holding potential of 0 mV. Extracellular solution contained 0.1 mM CaCl2, 3 mM MgCl2, 154 mM KCl, 10 mM HEPES and 10 mM glucose with pH 7.4. Intracellular solution for SK experiments contained 8.106 mM CaCl2 (final free calcium concentration of 400 nM), 1.167 mM MgCl2, 10 mM EGTA, 154 mM KCl, 10 mM HEPES, 31.25/ 10 mM KOH/EGTA and 15 mM KOH with pH 7.2. Automated patch clamp on hERG-expressing CHO cell line was performed also as previously described (Skarsfeldt et al., [2016]).
# Individual IC50 values were calculated for each cell with the built-in nonlinear fit log(inhibitor) vs. normalized response equation:
# Where Y is the normalized response, from 100, corresponding to current recorded during saline perfusion, down to 0, corresponding to currents recorded in the presence of bicuculline methiodide 100 μM. […]
# hERG channel = hERG channel (Homo sapiens, UniProt Q12809); experiment: Automated patch clamp, stable CHO cell line expressing hERG; settings: BBP 10 μM, automated patch clamp, CHO, n = 5
# Procedure: as §1
# as §2, with “Automated patch clamp on hERG-expressing CHO cell line was performed also as previously described (Skarsfeldt et al., [2016]).” left out
# (§3) To assess the effect of BBP on other calcium-activated potassium channels (hBK, hSK3 WT, rSK3 H491N, and hIK), each individual current was first normalized to its cell size using membrane's capacitance (pA/pF) before statistical analysis. […] Statistical significance between saline and the effect of both BBP and the corresponding reference compound was determined for each channel using one-way ANOVA analysis. […]
# [1] = biological target: hERG channel (against SK channel subtypes hSK1, hSK2, hSK3) (Homo sapiens, UniProt Q12809); experiment: as above; settings: human, CHO cells stably expressing hERG
# Procedure: as §1
# as §2, with “Automated patch clamp on hERG-expressing CHO cell line was performed also as previously described (Skarsfeldt et al., [2016]).” left out
# as §3
# hERG channel (against SK channel subtypes hSK1, hSK2, hSK3), sequence (Q12809 whole entry): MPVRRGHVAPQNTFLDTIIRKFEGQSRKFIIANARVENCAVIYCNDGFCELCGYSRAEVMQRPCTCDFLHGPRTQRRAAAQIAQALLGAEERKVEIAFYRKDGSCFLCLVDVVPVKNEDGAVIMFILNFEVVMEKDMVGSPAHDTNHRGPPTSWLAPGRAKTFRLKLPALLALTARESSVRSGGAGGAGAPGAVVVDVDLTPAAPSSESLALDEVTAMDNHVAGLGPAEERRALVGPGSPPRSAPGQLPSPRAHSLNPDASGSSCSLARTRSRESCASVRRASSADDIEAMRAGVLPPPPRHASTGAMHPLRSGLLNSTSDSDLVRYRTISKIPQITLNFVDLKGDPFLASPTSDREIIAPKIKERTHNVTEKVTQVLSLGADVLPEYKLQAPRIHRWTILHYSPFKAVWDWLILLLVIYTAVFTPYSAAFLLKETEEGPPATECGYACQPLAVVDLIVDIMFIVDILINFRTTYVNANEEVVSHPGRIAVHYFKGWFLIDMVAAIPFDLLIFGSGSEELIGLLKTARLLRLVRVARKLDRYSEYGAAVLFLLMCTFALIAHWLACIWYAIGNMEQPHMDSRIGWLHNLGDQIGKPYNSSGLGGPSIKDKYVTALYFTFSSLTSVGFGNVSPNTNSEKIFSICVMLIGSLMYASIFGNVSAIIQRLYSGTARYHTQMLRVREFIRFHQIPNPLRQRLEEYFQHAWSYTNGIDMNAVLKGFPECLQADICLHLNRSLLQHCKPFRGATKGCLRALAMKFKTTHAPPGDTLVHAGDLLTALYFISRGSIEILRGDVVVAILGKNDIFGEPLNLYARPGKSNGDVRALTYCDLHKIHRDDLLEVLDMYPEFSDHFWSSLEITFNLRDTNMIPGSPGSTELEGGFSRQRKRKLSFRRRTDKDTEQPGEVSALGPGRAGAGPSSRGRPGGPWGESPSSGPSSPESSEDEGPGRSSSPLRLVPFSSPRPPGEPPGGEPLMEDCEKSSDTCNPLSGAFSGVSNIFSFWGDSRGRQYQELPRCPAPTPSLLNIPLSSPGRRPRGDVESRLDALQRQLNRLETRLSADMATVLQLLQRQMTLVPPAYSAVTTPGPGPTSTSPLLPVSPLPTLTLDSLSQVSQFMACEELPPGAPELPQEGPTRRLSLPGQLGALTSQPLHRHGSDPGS
# hERG channel, sequence (Q12809 whole entry): as above
smiles,measurement,setting,value
"c1cc(-c2nc3ccccc3[nH]2)nc(-c2nc3ccccc3[nH]2)c1 [BBP, 2,6-Bis(2-benzimidazolyl)pyridine]",IC50,hSK1,700 ± 200 nM
same,Reduction of hERG current,hERG channel,19 ± 3%
same,selectivity ratio,[1],46
